This is an account of results in patent publication US5869482A, “Dipyridio[2,3-b:3',2'-] azepines and their use in the prevention or treatment of HIV infection” (priority 1997, dated 1999).

One assay has as its target T1, HIV-1 RT (Y181C) mutant (Human immunodeficiency virus type 1 (BRU ISOLATE), UniProt P03367, Y780C).
T1 construct: Y181C by site-directed mutagenesis
Nature of the assay: biochemical. Also noted: species or system Human Immunodeficiency Virus (HIV-1). Particulars: 1 μM compound; RNA-dependent DNA polymerase activity; read-out: RT (Y181C) % inh. (1 μM).

The next assay deals with T2, HIV-1 RT (K103N) mutant (Human immunodeficiency virus type 1 group M subtype B, UniProt P03367, K702N).
T2 construct: Reverse transcriptase enzyme from the LAV strain; made in house; host or cells: E. coli JM109 with clone pBRTprtl+ in vector pIBI21 (stated for the wild-type enzyme; inferred for the K103N mutant)
In words: biochemical. Also noted: species or system Human Immunodeficiency Virus (HIV-1). Particulars: 1 μM compound; RNA-dependent DNA polymerase activity; read-out: RT (K103N) % inh. (1 μM).

For assay [1], the target named is HIV-1 reverse transcriptase, wild type (WT) (Human immunodeficiency virus type 1 (BRU ISOLATE), UniProt P03367). In words: Reverse Transcriptase (RT) assay, wild type enzyme. The assay is classed as biochemical, Human Immunodeficiency Virus (HIV-1), LAV strain. To be noted: 1 μM compound; RNA-dependent DNA polymerase activity; read-out: RT (WT) % inh. (1 μM). The source says:
Utilizing the Reverse Transcriptase (RT) Assay described below, compounds can be tested for their ability to inhibit the RNA-dependent DNA polymerase activity of HIV-1 RT.
Among the enzymes for which Human Immunodeficiency Virus (HIV-1) encodes is a reverse transcriptase (1), so-named because it transcribes a DNA copy from an RNA template. This activity can be quantitatively measured in a cell-free enzyme assay, which has been previously described (2), and is based upon the observation that reverse transcriptase is able to use a synthetic template [poly r(C) primed with oligo d(G)] to transcribe a radio-labelled, acid-precipitable DNA strand utilizing ^3 H-dGTP as a substrate. The assay described below utilizes the wild type (WT) enzyme, which is the predominant form of the enzyme observed in patients infected with HIV-1.
Reverse transcriptase enzyme from the LAV strain of Human Immunodeficiency Virus (HIV-1) (1) was isolated from the bacterial strain JM109 (3) expressing the DNA clone pBRTprtl+ (2) which is under the control of the lac promotor in the expression vector pIBI21 (4). […] At that time the repressor inhibitor IPTG (isopropyl β-D-thiogalactopyranoside) is added to 0.5 mM, and the mixture is incubated for 2 additional hours. […] The cells are lysed by the addition of 0.2% NP-40 and brought to 1M NaCl. […]

The target of the next assay is T3, HIV-1 RT (P236L) mutant (Human immunodeficiency virus type 1 (BRU ISOLATE), UniProt P03367, P835L).
T3 construct: P236L mutant
The assay is classed as biochemical, Human Immunodeficiency Virus (HIV-1). Particulars: 1 μM compound; RNA-dependent DNA polymerase activity.

The target of another assay is T4, HIV-1 RT (L100I) mutant (Human immunodeficiency virus type 1 (BRU ISOLATE), UniProt P03367, L699I).
T4 construct: L100I mutant
The assay is classed as biochemical, Human Immunodeficiency Virus (HIV-1). Particulars: 1 μM compound; RNA-dependent DNA polymerase activity.

Structures are written as SMILES.

Take `CCN1c2ncccc2C=Cc2cccnc21` [Example 1, 11-Ethyl-dipyrido[2,3-b:3',2'-f]azepine]: the figures for the inhibition at 1 µM (on HIV-1 RT (Y181C) mutant; on HIV-1 RT (K103N) mutant; in assay [1]) were 53%, 73% and 98%, respectively. In addition, the “RT (P236L) % inh. (1 μM)” value at HIV-1 RT (P236L) mutant is recorded as 99%. Moreover, the “RT (L100I) % inh. (1 μM)” value at HIV-1 RT (L100I) mutant was found to be 81%.

Regarding `C1=Cc2cccnc2N(C2CC2)c2ncccc21` [Example 2, 11-Cyclopropyl-dipyrido[2,3-b:3',2'-f]azepine], the inhibition at 1 µM on HIV-1 RT (Y181C) mutant is 41%; at HIV-1 RT (K103N) mutant, 55%; in assay [1] it was 97%. Further, at HIV-1 RT (P236L) mutant, the “RT (P236L) % inh. (1 μM)” value worked out at 98%. The “RT (L100I) % inh. (1 μM)” value at HIV-1 RT (L100I) mutant is listed as 80%.
